Measurements: ChEMBL document CHEMBL5604063, “ASAP - DENV-2 NS2B-NS3 protease fluorescence dose response” (2024)
Several values for one entry are separate records, joined by “and”; a condition that tells them apart may be missing. Equal values may be shown once.

Key:
[1] = target: T1, Genome polyprotein (dengue virus type 2, UniProt P29990); format: functional, Thailand/16681/1984
[2] = target: T1, Genome polyprotein; format: functional, Thailand/16681/1984; remark: listed apart in the source

T1 sequence (P29990 1346-1475 limits assumed): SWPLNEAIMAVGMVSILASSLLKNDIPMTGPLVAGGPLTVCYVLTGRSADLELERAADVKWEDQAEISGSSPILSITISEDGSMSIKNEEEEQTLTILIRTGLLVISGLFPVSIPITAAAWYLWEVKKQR
T1 sequence (P29990 1476-2093 limits assumed): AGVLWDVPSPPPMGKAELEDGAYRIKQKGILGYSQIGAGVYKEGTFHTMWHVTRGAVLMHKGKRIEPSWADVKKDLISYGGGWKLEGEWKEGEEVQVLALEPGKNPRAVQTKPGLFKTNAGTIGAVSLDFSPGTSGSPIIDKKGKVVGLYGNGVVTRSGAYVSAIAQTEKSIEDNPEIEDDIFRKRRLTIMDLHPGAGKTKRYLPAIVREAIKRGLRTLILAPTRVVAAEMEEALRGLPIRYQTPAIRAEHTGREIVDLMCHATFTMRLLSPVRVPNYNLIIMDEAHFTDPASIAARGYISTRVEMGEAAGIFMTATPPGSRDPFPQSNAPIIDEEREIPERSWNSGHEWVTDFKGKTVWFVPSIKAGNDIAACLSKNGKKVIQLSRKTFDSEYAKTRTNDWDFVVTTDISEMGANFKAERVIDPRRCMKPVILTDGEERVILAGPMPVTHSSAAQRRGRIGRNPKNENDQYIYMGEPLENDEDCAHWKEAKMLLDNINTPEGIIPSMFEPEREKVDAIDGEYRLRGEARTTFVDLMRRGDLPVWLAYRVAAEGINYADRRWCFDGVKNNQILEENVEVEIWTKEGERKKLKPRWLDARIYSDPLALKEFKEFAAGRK

Row | SMILES | IC50 [1] | IC50 [2]
1 | O=C(Nc1ccc2c(c1)CNC2)c1ccc2c(c1)C1(CC1)C(=O)N2 | > 99.5 µM | > 100 µM
2 | O=C1Cc2c(cccc2C(=O)Nc2ccc3c(c2)[C@H](O)CCO3)N1 | > 99.5 µM | > 100 µM
3 | O=C1Cc2c(cccc2C(=O)Nc2ccnn2Cc2ccncc2)N1 | > 99.5 µM | > 100 µM
4 | CN1CCC[C@H](c2nc3c(C(=O)Nc4ccc5c(c4)CNC5)cc(F)cc3[nH]2)C1=O | > 99.5 µM | > 100 µM
5 | O=C(NCC(F)F)[C@H](Nc1ccc2c(c1)CNC2)c1cc(Br)cc2nc[nH]c12 | > 99.5 µM | > 100 µM
6 | O=C1Cc2c(cccc2C(=O)Nc2cnn(Cc3ccncc3)c2)N1 | > 99.5 µM | > 100 µM
7 | CO[C@]1(C)C(=O)Nc2cc(F)cc(C(=O)Nc3ccc4c(c3)CNC4)c21 | > 99.5 µM | > 100 µM
8 | CNC(=O)c1cc(Br)cc([C@H](Nc2ccc3c(c2)CNC3)C(=O)NCC(F)F)c1 | > 99.5 µM | > 100 µM
9 | O=C1Nc2ccc(C(=O)Nc3ccc4c(c3)CNC4)cc2C1=O | 2.66 µM and 1.99 µM | 5.35 µM and 5.79 µM
10 | CCS(=O)(=O)c1ccc(Cl)cc1[C@H](Nc1ccc2c(c1)CNC2)C(=O)NCC(F)F | > 99.5 µM | > 100 µM
11 | Cc1c(C(=O)Nc2cc(C(=O)N3CC4(CCO4)C3)ccn2)cc(C2CC2)n1C | > 99.5 µM | > 100 µM
12 | O=C1Cc2c(cccc2C(=O)Nc2cnc(OC3CCC3)nc2)N1 | > 99.5 µM | > 100 µM
13 | Cn1nc([C@H](Nc2cc([C@H]3CCOC3)ccn2)C(F)(F)F)cc1C1CC1 | > 99.5 µM | > 100 µM
14 | N#CCc1cc(NC(=O)c2cc(F)cc3[nH]ncc23)cc2c1CNC2 | 23.5 µM | 38.3 µM and 18.9 µM
15 | C[C@]1(OCCO)C(=O)Nc2cc(F)cc(C(=O)Nc3ccc4c(c3)CNC4)c21 | > 99.5 µM | > 100 µM
16 | O=C(NCC(F)F)[C@H](Nc1ccc2c(c1)CNC2)c1cc(Cl)cc(Cl)c1OCCN1CCOCC1 | > 99.5 µM | > 100 µM
17 | O=C1Cc2c(cccc2C(=O)Nc2ccc3c(c2)CNCC3)N1 | 76.4 µM | > 100 µM

Row | SMILES | IC50 [1] | IC50 [2]
18 | O=C(NCC(F)F)[C@H](Nc1cnc2c(c1)CNC2)c1cc(Cl)cc(C2CC2)c1 | > 99.5 µM | > 100 µM
19 | O=C(NCC(F)F)[C@H](Nc1ccc2c(c1)CNC2)c1cc(Br)ccc1OCc1ccccn1 | > 99.5 µM | > 100 µM
20 | Clc1cc(CNc2ccc3c(c2)[C@@H]2CC[C@H]3N2)c2cn[nH]c2c1 | > 99.5 µM | > 100 µM
21 | O=C1Cc2c(cccc2C(=O)Nc2cccc(Cc3nn[nH]n3)c2)N1 | > 99.5 µM | > 100 µM
22 | NCc1cccc(NC(=O)c2cccc3c2CC(=O)N3)c1 | > 99.5 µM | > 100 µM
23 | CS(=O)(=O)c1cncc(-c2cc(F)cc(C(=O)Nc3ccc4c(c3)CNC4)c2)c1 | > 99.5 µM | > 100 µM
24 | O=C(NCC(F)F)[C@H](Nc1ccc2c(c1)CNC2)c1cc(Br)ccc1C1CC1 | > 99.5 µM | > 100 µM
25 | CCc1cnc2c(NC(=O)c3cccc4c3CC(=O)N4)cnn2c1 | > 99.5 µM | > 100 µM
26 | O=C1Cc2c(cccc2C(=O)Nc2ccc3c(n2)CNC3)N1 | > 99.5 µM | > 100 µM
27 | NCCc1cccc(NC(=O)c2cccc3c2CC(=O)N3)c1 | > 99.5 µM | > 100 µM
28 | O=C(NCC(F)F)[C@H](Nc1ccc2c(c1)CNC2)c1cc(Br)cc2ccccc12 | > 99.5 µM | > 100 µM
29 | O=C(Nc1cc2c(cn1)CNC2)c1cc(F)cc2[nH]ncc12 | > 99.5 µM | > 100 µM
30 | O=C(O)C[C@H]1NCc2cc(NC(=O)c3cc(Cl)cc4[nH]ncc34)ccc21 | > 99.5 µM | > 100 µM
31 | O=C(NCC(F)F)[C@H](Nc1ccc2c(c1)CNC2)c1cc(Cl)ccc1OC[C@H]1CCCO1 | > 99.5 µM | > 100 µM
32 | O=C(Nc1ccc2c(c1)CNC2)c1cccc2c3c([nH]c12)CCC3 | > 99.5 µM | > 100 µM
33 | C[C@H](NC(=O)c1cccc2c1CC(=O)N2)c1nnc2n1CCCC2 | > 99.5 µM | > 100 µM
